Our source for the ΔTm and binding values is PMC5037830 (2016).

The structures appear in SMILES notation.

The subject of experiment [1] is dsDNA (ds-oligonucleotide, oligonucleotides 1 and 2) (DNA, duplex) AAATTAATATGTATTGTATATAAATTATT/AATAATTTATATACAATACATATTAATTT
Nature of the experiment: UV melting (260 nm). The conditions noted are these: 0.1 M NaCl, 0.01 M MgCl2.

The test system is the same in experiment [2]. Briefly: circular dichroism. The conditions noted are these: Na+ (TBS); TBS pH 7.4, 1 mM EDTA, 37 °C; 2.5 µM compound, 2.5 µM duplex. (In general: Circular dichroism is the unequal absorption of left and right circularly polarised light.)

As usually defined, the ΔTm is the change in melting temperature against a reference sample. With `O=C1Oc2ccccc2C(=O)C1=CNCCCN1CCN(CCCNC=C2C(=O)Oc3ccccc3C2=O)CC1`, the ΔTm in experiment [1] (derived from two Tm (64.02 ± 0.00, control 64.97 ± 0.20), 15 µM, change called negligible) is -0.95 °C.

Turning to `Nc1c(C(=O)NCCCN2CCN(CCCNC(=O)c3cnc4ccccc4c3N)CC2)cnc2ccccc12`, the ΔTm in experiment [1] (derived from two Tm (70.7 ± 0.71, control 64.97 ± 0.20), text says 7, 15 µM, 0.1% DMSO) turned out to be 5.73 °C. In addition, the binding result in experiment [2] is “yes”.

In the case of `CN(CCCNC=C1C(=O)Oc2ccccc2C1=O)CCCNC=C1C(=O)Oc2ccccc2C1=O`, the ΔTm in experiment [1] (derived from two Tm (64.07 ± 0.14, control 64.97 ± 0.20), 15 µM, change called negligible) is -0.90 °C.

As for `CN(CCCNC(=O)c1cnc2ccccc2c1N)CCCNC(=O)c1cnc2ccccc2c1N`, the ΔTm in experiment [1] (derived from two Tm (64.5 ± 0.71, control 64.97 ± 0.20), 15 µM, change called negligible) is -0.47 °C.

On to `Nc1c2ccccc2nc2ccccc12`, for which the ΔTm in experiment [1] (derived from two Tm (78.00 ± 0.00, control 64.97 ± 0.20), 100 µM) worked out at 13.03 °C.
